The source of these data is patent publication US6362237B1, “Compounds with progesterone-antagonistic and antiestrogenic action to be used together for female contraception” (Schering Aktiengesellschaft, priority 1994, dated 2002).

Test [1] deals with guinea pigs. The experiment in a line: Inhibition of implantation in guinea pigs by estrogen antagonists. Format: in vivo, guinea pig.
Test [2] concerns normal guinea pigs with a normal cycle. The test is described as follows: Test 3: receptivity inhibition in guinea pigs treated over 2 cycles, mating in the second cycle. It counts as in vivo, guinea pig. As to conditions: for effectiveness of the single dose given separately: 0.5 mg daily s.c.; for effectiveness of the single dose given separately / effect of lower doses by themselves: alone; for effect of lower doses by themselves: <1.0 mg daily s.c. The procedure: The tests were carried out on normal guinea pigs with a normal cycle over a treatment period of 2 cycles. Mating took place in the second cycle.
Doses of Onapristone: 0.1, 0.25, 0.5, 1.0 and 3.0 mg daily s.c.

Consider `C[C@]12CC[C@@H]3c4ccc(O)cc4C[C@@H](CCCCCCCCC[S+]([O-])CCCC(F)(F)C(F)(F)F)[C@H]3[C@@H]1CC[C@@H]2O` (stereo partly drawn) [ICI 182780, 7α-[9-[(4,4,5,5,5-pentafluorpentyl)sulfinyl]nonyl]estra-1,3,5(10)-trien-3,17β-diol], for which the “implantation in guinea pigs” value in test [1] is listed as “inhibit implantation”.

As for `CN(C)c1ccc([C@H]2C[C@]3(C)[C@@H](CC[C@]3(O)CCCO)[C@@H]3CCC4=CC(=O)CCC4=C32)cc1` [onapristone, 11β-[4-(dimethylamino)phenyl]-17α-hydroxy-17β-(3-hydroxypropyl)-13α-estra-4,9-dien-3one], in test [2], the “effectiveness of the single dose given separately” value is reported as “only marginally effective” and the “effect of lower doses by themselves” value is “no effect or a marginal effect”. In addition, in test [2] (onapristone alone, high doses, daily s.c.), the pregnancies after treatment result was “occasional pregnancies occurred”.

Take `CC/C(=C(\c1ccccc1)c1ccc(OCCN(C)C)cc1)c1ccccc1` [tamoxifen, (Z)-N,N-dimethyl-2-[4-(1,2-diphenyl-1-butenyl)phenoxy]ethanamine]: in test [2], the “effectiveness of the single dose given separately” value was “only marginally effective” and the “effect of lower doses by themselves” value was “no effect or a marginal effect”. Also, the normal pregnancies in test [2] (tamoxifen alone, 10.0 mg daily s.c., 2 cycles) stood at 30%. The inhibition of receptivity result in test [2] (tamoxifen alone, dosage range 0.1-10.0 mg/animal daily s.c.) is “no complete inhibition of receptivity could be achieved”. In test [1], the “implantation in guinea pigs” value was “inhibit implantation”.
